In brackets after ≈: the same amount, converted by molar mass.

Experimental findings from publication PMC11846289, “New tetrahydroisoquinolines bearing nitrophenyl group targeting HSP90 and RET enzymes: synthesis, characterization and biological evaluation” (BMC Chemistry, 2025) are described below.

In data set [1] the test system is HEPG2 (human liver carcinoma). Nature of the data set: one spot 100 µg/ml cytotoxicity, HEPG2. The format is cell-based. As to conditions: for inhibition at 100 µg/mL: Homo sapiens, HepG2, percent inhibition, read-out: one spot concentration inhibition, HEPG2.
The test system of data set [2] is CACO2 (colon carcinoma human). As to the kind of experiment: one spot 100 µg/ml cytotoxicity, CACO2. The format is cell-based. As to conditions: for inhibition at 100 µg/mL: Homo sapiens, Caco-2, percent inhibition, read-out: one spot concentration inhibition, CACO2.
Data set [3] deals with A549 (human lung carcinoma). As to the kind of experiment: one spot 100 µg/ml cytotoxicity, A549. The format is cell-based. The note with it: for inhibition at 100 µg/mL: Homo sapiens, A549, percent inhibition, read-out: one spot concentration inhibition, A549.
In data set [4] the test system is MCF7 (human breast carcinoma). As to the kind of experiment: one spot 100 µg/ml cytotoxicity, MCF7. The format is cell-based. The note with it: for inhibition at 100 µg/mL: Homo sapiens, MCF7, percent inhibition, read-out: one spot concentration inhibition, MCF7.
The subject of data set [5] is H460 (human lung carcinoma). As to the kind of experiment: one spot 100 µg/ml cytotoxicity, H460. In kind it is cell-based. The note with it: for inhibition at 100 µg/mL: Homo sapiens, NCI-H460, percent inhibition, read-out: one spot concentration inhibition, H460.
Data set [6] deals with HCT116 (colon carcinoma human). Nature of the data set: one spot 100 µg/ml cytotoxicity, HCT116. In kind it is cell-based. The note with it: for inhibition at 100 µg/mL: Homo sapiens, HCT-116, percent inhibition, read-out: one spot concentration inhibition, HCT116.
The next data set concerns HEPG2 cell line. Nature of the data set: MTT in vitro cytotoxicity, HEPG2. In kind it is cell-based, human. As to conditions: for Selectivity Index = IC50 of HSF/IC50 of HEPG2: HSF vs HEPG2; for IC50: Homo sapiens, read-out: IC50 for HEPG2 ± S.D. How it is done: (§1) Using the MTT test method, the in vitro cytotoxicity of our synthesized compounds at different doses ranging from […] was examined in two cell lines, HEPG2 and MCF7, to examine 50% of the cancer cells dying.
(§2) Some of the synthesized compounds were tested as anticancer activity for the IC50 against two cell lines HEPG2 and MCF7 cells according to method. All cell lines were obtained from national cancer institute, Cairo—Egypt.

The test system of data set [7] is HUH7 (human liver carcinoma). As to the kind of experiment: one spot 100 µg/ml cytotoxicity, HUH7. The note with it: for inhibition at 100 µg/mL: Homo sapiens, Huh-7, percent inhibition, read-out: one spot concentration inhibition, HUH7. The format is cell-based.
In the next data set the test system is HSF. As to the kind of experiment: IC50 against normal cell line HSF. The format is cell-based, human. As to conditions: normal skin cell line HSF; for IC50: Homo sapiens, read-out: IC50 FOR HSF ± S.D.
For the next data set, the system named is MCF7 cell line. As to the kind of experiment: MTT in vitro cytotoxicity, MCF7. In kind it is cell-based, human. The note with it: for Selectivity Index = IC50 of HSF/ IC50 of MCF7: HSF vs MCF7; for IC50: Homo sapiens, read-out: IC50 for MCF7 ± S.D. How it is done:
as §1, §2

In data set [8] the test system is normal human skin cell line (HSF). As to the kind of experiment: one spot 100 µg/ml cytotoxicity, normal skin cell line HSF. In kind it is cell-based. As to conditions: for cytotoxicity at 100 µg/mL / inhibition at 100 µg/mL: Homo sapiens; for cytotoxicity at 100 µg/mL: HSF, read-out: Inhibition percent of HSF cell line; for inhibition at 100 µg/mL: read-out: one spot concentration inhibition, HSF.

Data set [9] concerns MG-63 (human osteosarcoma). As to the kind of experiment: one spot 100 µg/ml cytotoxicity, MG-63. The note with it: for inhibition at 100 µg/mL: Homo sapiens, MG-63, percent inhibition, read-out: one spot concentration inhibition, MG-63. In kind it is cell-based.

For `CC(=O)c1ccc(NC(=O)c2sc3nc(C)c4c(c3c2N)CC(C)(O)C(C(C)=O)C4c2cccc([N+](=O)[O-])c2)cc1` (centres unmarked) [Compound 7a, 7-Acetyl-N-(4-acetylophenyl)−1-amino-5,8-dimethyl-8-hydroxy-6-(3-nitro-phenyl)−6,7,8,9-tetrahydrothieno[2,3-c]isoquinoline-2-carboxamide], the “one spot concentration inhibition, HEPG2” value in data set [1] (percent inhibition) was determined as 58.67%. Besides, the “one spot concentration inhibition, CACO2” value in [2] (percent inhibition) came to 58.2%. Moreover, the “one spot concentration inhibition, A549” value in data set [3] (percent inhibition) was 46.81%. In addition, in data set [4] (percent inhibition), the “one spot concentration inhibition, MCF7” value is recorded as 57.92%. Also, the “one spot concentration inhibition, H460” value in data set [5] (percent inhibition) amounted to 59.87%. The “one spot concentration inhibition, HCT116” value in data set [6] (percent inhibition) was determined as 59.7%. Besides, the “Selectivity Index = IC50 of HSF/IC50 of HEPG2” value with HEPG2 cell line amounted to 0.92. For the same compound, the “IC50 for HEPG2 ± S.D” value in the data set with HEPG2 cell line (MTT, HEPG2) was 97 ± 0.054 µg/mL. In addition, the “one spot concentration inhibition, HUH7” value in data set [7] (percent inhibition) is on record as 32.35%. In addition, the “IC50 FOR HSF ± S.D.” value in the data set on HSF stood at 90 µg/mL (≈ 157 µM). Moreover, the “Selectivity Index = IC50 of HSF/ IC50 of MCF7” value in the data set with MCF7 cell line is listed as 1.8. For the same compound, the “IC50 for MCF7 ± S.D” value in the data set on MCF7 cell line (MTT, MCF7) was 50 ± 0.031 µg/mL. Besides, the “one spot concentration inhibition, HSF” value in [8] (100 µg/ml, supplement Table S1) is listed as 51.85%. Also, the “Inhibition percent of HSF cell line” value in data set [8] (one spot 100 µg/ml) is listed as 55%. Also, in data set [9] (percent inhibition), the “one spot concentration inhibition, MG-63” value stood at 50.44%.
What is called IC50 is the concentration that gives 50% inhibition. As to `CC(=O)C1C(c2cccc([N+](=O)[O-])c2)c2c(C)nc(SCC(=O)Nc3cccc4ccccc34)c(C#N)c2CC1(C)O` (centres unmarked) [Compound 8a, 2-[(7-Acetyl-4-cyano-1,6-dimethyl-6-hydroxy-8-(3-nitrophenyl)−5,6,7,8-tetrahydro-isoquinolin-3-yl)thio]-N-(naphthalen-1-yl)acetamide], the inhibition at 100 µg/mL came to 60% in data set [1]; 53.2% in [2]; 46.2% in data set [3]; 72.4% in data set [4]; 59.6% in data set [5]; 56.1% in data set [6]. Further, the inhibition at 100 µg/mL in [7] was found to be 25.9%; in [8] (100 µg/ml, supplement Table S1), 56.9%; in data set [9], 38.5%. Besides, the “Selectivity Index = IC50 of HSF/IC50 of HEPG2” value in the data set on HEPG2 cell line worked out at 0.95. Also, the IC50 came out at 88 ± 0.072 µg/mL (≈ 152 µM) with HEPG2 cell line (MTT, HEPG2); 84 µg/mL (≈ 145 µM) with HSF; 50 ± 0.019 µg/mL (≈ 86.1 µM) with MCF7 cell line (MTT, MCF7). For the same compound, the “Selectivity Index = IC50 of HSF/ IC50 of MCF7” value with MCF7 cell line was determined as 1.6. Besides, the cytotoxicity at 100 µg/mL in data set [8] (one spot 100 µg/ml) stood at 59%.
As to `CC(=O)C1C(c2ccc([N+](=O)[O-])cc2)c2c(C)nc(SCC(=O)Nc3cccc4ccccc34)c(C#N)c2CC1(C)O` (centres unmarked) [Compound 8b, 2-[(7-Acetyl-4-cyano-1,6-dimethyl-6-hydroxy-8-(4-nitrophenyl)−5,6,7,8-tetrahydro-isoquinolin-3-yl)thio]-N-(naphthalen-1-yl)acetamide], the inhibition at 100 µg/mL worked out at 66.6% in [1]; 41.7% in data set [2]; 15.2% in data set [3]; 57.2% in [4]; 62% in [5]; 67.5% in data set [6]. Further, the inhibition at 100 µg/mL in data set [7] was 30.2%; in [8] (100 µg/ml, supplement Table S1) it was 48.2%; in data set [9], 57.5%. Besides, the “Selectivity Index = IC50 of HSF/IC50 of HEPG2” value in the data set with HEPG2 cell line is 1.1. Besides, the IC50 with HEPG2 cell line (MTT, HEPG2) amounted to 94 ± 0.82 µg/mL (≈ 162 µM); in the data set on HSF it was 100 µg/mL (≈ 172 µM); in the data set with MCF7 cell line (MTT, MCF7), 12 ± 0.056 µg/mL (≈ 20.7 µM). Also, the “Selectivity Index = IC50 of HSF/ IC50 of MCF7” value in the data set with MCF7 cell line is on record as greater than 2; in the data set with MCF7 cell line (listed as 8B), 8.3. Moreover, the cytotoxicity at 100 µg/mL in [8] (one spot 100 µg/ml) turned out to be 50%.
For the compound `CC(=O)C1C(c2ccc([N+](=O)[O-])cc2)c2c(C)nc3sc(C(=O)Nc4cccc5ccccc45)c(N)c3c2CC1(C)O` (centres unmarked) [Compound 9b, 7-Acetyl-1-amino-N-(naphthalen-1-yl)−5,8-dimethyl-8-hydroxy-6-(4-Nitrophenyl)−6,7,8,9-tetrahydrothieno[2,3-c]isoquinoline-2-carboxamide], the inhibition at 100 µg/mL in [1] amounted to 70%; in [2], 51.7%; in [3], 45%; in [4] it was 55.2%; in data set [5], 58%; in data set [6], 55.6%. For the same compound, the inhibition at 100 µg/mL came out at 35.7% in [7]; 56.2% in data set [8] (100 µg/ml, supplement Table S1); 30.2% in data set [9]. For the same compound, the “Selectivity Index = IC50 of HSF/IC50 of HEPG2” value with HEPG2 cell line stood at 0.98. The IC50 stood at 87 ± 0.61 µg/mL (≈ 150 µM) in the data set with HEPG2 cell line (MTT, HEPG2); 86 µg/mL (≈ 148 µM) in the data set on HSF; 80 ± 0.05 µg/mL (≈ 138 µM) in the data set on MCF7 cell line (MTT, MCF7). Further, the “Selectivity Index = IC50 of HSF/ IC50 of MCF7” value in the data set on MCF7 cell line is 1.1. The cytotoxicity at 100 µg/mL in [8] (one spot 100 µg/ml) is 58%.
Regarding `CC(=O)C1C(c2cccc([N+](=O)[O-])c2)c2c(C)nc3sc(C(=O)Nc4nc5ccccc5s4)c(N)c3c2CC1(C)O` (centres unmarked) [Compound 10, 7-Acetyl-1-amino-N-(benzthiazol-2-yl)−5,8-dimethyl-8-hydroxy-6-(3-nitrophenyl)−6,7,8,9-tetrahydrothieno[2,3-c]isoquinoline-2-carboxamide], the inhibition at 100 µg/mL is 55.2% in data set [1]; 60.6% in [2]; 47.4% in [3]; 75.4% in data set [4]; 63.3% in data set [5]; 59.2% in [6]. Also, the inhibition at 100 µg/mL was found to be 21.8% in data set [7]; 54.7% in data set [8] (100 µg/ml, supplement Table S1); 46.7% in data set [9]. Further, the IC50 in the data set on HEPG2 cell line (MTT, HEPG2) was greater than 100 µg/mL; with HSF, 89 µg/mL (≈ 151 µM); in the data set with MCF7 cell line (MTT, MCF7) it was greater than 100 µg/mL. In data set [8] (one spot 100 µg/ml), the cytotoxicity at 100 µg/mL came out at 56%.
For the compound `COc1cccc2c1C(=O)c1c(O)c3c(c(O)c1C2=O)C[C@@](O)(C(=O)CO)C[C@@H]3O[C@H]1C[C@H](N)[C@H](O)[C@H](C)O1` [Doxorubicin, reference compound], the inhibition at 100 µg/mL in data set [1] came out at 58.9%; in [2] it was 74.8%; in data set [3], 32%; in data set [4], 74%; in data set [5], 72.9%; in data set [6], 70.9%. Further, the inhibition at 100 µg/mL in data set [7] was found to be 52.8%; in data set [8] (100 µg/ml, supplement Table S1), 58.9%; in data set [9], 63.8%. In addition, the “Selectivity Index = IC50 of HSF/IC50 of HEPG2” value in the data set with HEPG2 cell line was 20.1. In addition, the IC50 in the data set with HEPG2 cell line (MTT, HEPG2) turned out to be 4.13 ± 0.054 µg/mL (≈ 7.6 µM); with HSF, 83 µg/mL (≈ 153 µM); in the data set with MCF7 cell line (MTT, MCF7), 4.58 ± 0.081 µg/mL (≈ 8.43 µM). In addition, the “Selectivity Index = IC50 of HSF/ IC50 of MCF7” value in the data set on MCF7 cell line was 18.1. Moreover, the cytotoxicity at 100 µg/mL in data set [8] (one spot 100 µg/ml) worked out at 60%.
